# Assay results: patent publication US12403174B2, “Immunomodulators” (Bristol-Myers Squibb Company, priority 2020, dated 2025)
# *1 amine or outer side, *2 acyl side, *3 side chain or, on linkers, in order; H or OH if unused. Where a SMILES comes first, the peptide text is derived from it. Bridges are numbered along the chain shown (N, C = ends). [ ]: non-standard residue; d: D form. The star is where a group is joined. Trp(1-CH2COOH) = N[C@@H](Cc1cn(CC(=O)O)c2ccccc12)C(=O)O; X6 = CCOC(=O)Cn1cc(C[C@H](N[*:1])C(=O)[*:2])c2ccccc21; X3 = CCOC(=O)c1ccc(Nc2c(*)c(=O)c2=O)cc1; X8 = O=C(O)c1ccc(Nc2c(*)c(=O)c2=O)cc1; X1 = O=c1c(Nc2c(Cl)cccc2Cl)c(*)c1=O; Hyp = O=C(O)[C@@H]1C[C@@H](O)CN1; NMeNle = CCCC[C@H](NC)C(=O)O; X2 = CC(C)Oc1c(*)c(=O)c1=O; X5 = CN(C)c1c(*)c(=O)c1=O; NMeA = CN[C@@H](C)C(=O)O; Orn = NCCC[C@H](N)C(=O)O; X7 = CCOc1c(*)c(=O)c1=O; Dap = NC[C@H](N)C(=O)O; X4 = COc1c(*)c(=O)c1=O
# Target: T1, PD-1/PD-L1 (Homo sapiens, UniProt Q9NZQ7)
# T1 construct: TVMV protease site linker (C); made in house; host or cells: HEK293T cells
# Assay: PD-1/PD-L1 Homogenous Time-Resolved Fluorescence (HTRF) binding assay
# Conditions: PD-L1-His 10 nM, PD-1-Ig 20 nM; soluble extracellular domains
# From the text: The ability of the compounds of formula (I) to bind to PD-L1 was investigated using a PD-1/PD-L1 Homogenous Time-Resolved Fluorescence (HTRF) binding assay.
# The interaction of PD-1 and PD-L1 can be assessed using soluble, purified preparations of the extracellular domains of the two proteins. The PD-1 and PD-L1 protein extracellular domains were expressed as fusion proteins with detection tags, for PD-1, the tag was the Fc portion of Immunoglobulin (PD-1-Ig) and for PD-L1 it was the 6 histidine motif (PD-L1-His). All binding studies were performed in an HTRF assay buffer consisting of dPBS supplemented with 0.1% […] bovine serum albumin and 0.05% (v/v) Tween-20. For the h/PD-L1-His binding assay, inhibitors were pre-incubated with PD-L1-His (10 nM final) for 15 m in 4 μl of assay buffer, followed by addition of PD-1-Ig (20 nM final) in 1 μl of assay buffer and further incubation for 15 m. HTRF detection was achieved using europium crypate-labeled anti-Ig (1 nM final) and allophycocyanin (APC) labeled anti-His (20 nM final). Antibodies were diluted in HTRF detection buffer and 5 μl was dispensed on top of the binding reaction. The reaction mixture was allowed to equilibrate for 30 minutes and the resulting signal (665 nm/620 nm ratio) was obtained using an EnVision fluorometer. Additional binding assays were established between the human proteins PD-1-Ig/PD-L2-His (20 & 5 nM, respectively) and CD80-His/PD-L1-Ig (100 & 10 nM, respectively).
# Recombinant Proteins: Human PD-1 (25-167) with a C-terminal human Fc domain of immunoglobulin G (Ig) epitope tag [hPD-1 (25-167)-3S-IG] and human PD-L1 (18-239) with a C-terminal His epitope tag [hPD-L1(18-239)-TVMV-His] were expressed in HEK293T cells and purified sequentially by ProteinA affinity chromatography and size exclusion chromatography. Human PD-L2-His and CD80-His was obtained through commercial sources.
# Table 1 lists the IC50 values for representative examples of this disclosure measured in the PD-1/PD-L1 Homogenous Time-Resolved Fluorescence (HTRF) binding assay.
# T1 sequence (Q9NZQ7 18-239): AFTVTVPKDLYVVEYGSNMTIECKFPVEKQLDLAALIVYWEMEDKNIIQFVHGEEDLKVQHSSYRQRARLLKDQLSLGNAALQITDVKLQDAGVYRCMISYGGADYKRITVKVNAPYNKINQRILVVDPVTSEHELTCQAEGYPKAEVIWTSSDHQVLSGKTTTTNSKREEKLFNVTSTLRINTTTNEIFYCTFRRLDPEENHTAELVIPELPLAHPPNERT
row,SMILES,IC50
1,CCCC[C@H]1C(=O)N(C)[C@@H](CCCC)C(=O)N[C@@H](CC(C)C)C(=O)N[C@H](C(=O)NCC(N)=O)CSCC(=O)N[C@@H](Cc2ccc(O)cc2)C(=O)N(C)[C@@H](C)C(=O)N[C@@H](CC(N)=O)C(=O)N2CCC[C@H]2C(=O)N[C@@H](CNc2c(Nc3ccc(C(=O)O)cc3)c(=O)c2=O)C(=O)N[C@@H](CC(C)C)C(=O)N2C[C@H](O)C[C@H]2C(=O)N[C@@H](Cc2c[nH]c3ccccc23)C(=O)N[C@@H](CCCNc2c(Nc3ccc(C(=O)O)cc3)c(=O)c2=O)C(=O)N[C@@H](Cc2cn(CC(=O)O)c3ccccc23)C(=O)N1C [Compound 1009] ({CH2CO}-Y[NMeA]NP[Dap](X8)L[Hyp]W[Orn](X8)[Trp(1-CH2COOH)][NMeNle][NMeNle]LCG-NH2; thioether N-14),2.9 nM
2,CCCC[C@H]1C(=O)N(C)[C@@H](CCCC)C(=O)N[C@@H](CC(C)C)C(=O)N[C@H](C(=O)NCC(N)=O)CSCC(=O)N[C@@H](Cc2ccc(O)cc2)C(=O)N(C)[C@@H](C)C(=O)N[C@@H](CC(N)=O)C(=O)N2CCC[C@H]2C(=O)N[C@@H](CNc2c(Nc3c(Cl)cccc3Cl)c(=O)c2=O)C(=O)N[C@@H](CC(C)C)C(=O)N2C[C@H](O)C[C@H]2C(=O)N[C@@H](Cc2c[nH]c3ccccc23)C(=O)N[C@@H](CCCNc2c(Nc3c(Cl)cccc3Cl)c(=O)c2=O)C(=O)N[C@@H](Cc2cn(CC(=O)O)c3ccccc23)C(=O)N1C [Compound 1006] ({CH2CO}-Y[NMeA]NP[Dap](X1)L[Hyp]W[Orn](X1)[Trp(1-CH2COOH)][NMeNle][NMeNle]LCG-NH2; thioether N-14),2.8 nM
3,CCCC[C@H]1C(=O)N(C)[C@@H](CCCC)C(=O)N[C@@H](CC(C)C)C(=O)N[C@H](C(=O)NCC(N)=O)CSCC(=O)N[C@@H](Cc2ccc(O)cc2)C(=O)N(C)[C@@H](C)C(=O)N[C@@H](CC(N)=O)C(=O)N2CCC[C@H]2C(=O)N[C@@H](CNc2c(OC)c(=O)c2=O)C(=O)N[C@@H](CC(C)C)C(=O)N2C[C@H](O)C[C@H]2C(=O)N[C@@H](Cc2c[nH]c3ccccc23)C(=O)N[C@@H](CCCN)C(=O)N[C@@H](Cc2cn(CC(=O)O)c3ccccc23)C(=O)N1C [Compound 1002] ({CH2CO}-Y[NMeA]NP[Dap](X4)L[Hyp]W[Orn][Trp(1-CH2COOH)][NMeNle][NMeNle]LCG-NH2; thioether N-14),3.6 nM
4,CCCC[C@H]1C(=O)N(C)[C@@H](CCCC)C(=O)N[C@@H](CC(C)C)C(=O)N[C@H](C(=O)NCC(N)=O)CSCC(=O)N[C@@H](Cc2ccc(O)cc2)C(=O)N(C)[C@@H](C)C(=O)N[C@@H](CC(N)=O)C(=O)N2CCC[C@H]2C(=O)N[C@@H](CNc2c(OC)c(=O)c2=O)C(=O)N[C@@H](CC(C)C)C(=O)N2C[C@H](O)C[C@H]2C(=O)N[C@@H](Cc2c[nH]c3ccccc23)C(=O)N[C@@H](CCCNc2c(OC)c(=O)c2=O)C(=O)N[C@@H](Cc2cn(CC(=O)O)c3ccccc23)C(=O)N1C [Compound 1001] ({CH2CO}-Y[NMeA]NP[Dap](X4)L[Hyp]W[Orn](X4)[Trp(1-CH2COOH)][NMeNle][NMeNle]LCG-NH2; thioether N-14),4.2 nM
5,CCCC[C@H]1C(=O)N(C)[C@@H](CCCC)C(=O)N[C@@H](CC(C)C)C(=O)N[C@H](C(=O)NCC(N)=O)CSCC(=O)N[C@@H](Cc2ccc(O)cc2)C(=O)N(C)[C@@H](C)C(=O)N[C@@H](CC(N)=O)C(=O)N2CCC[C@H]2C(=O)N[C@@H](CNc2c(N(C)C)c(=O)c2=O)C(=O)N[C@@H](CC(C)C)C(=O)N2C[C@H](O)C[C@H]2C(=O)N[C@@H](Cc2c[nH]c3ccccc23)C(=O)N[C@@H](CCCNc2c(N(C)C)c(=O)c2=O)C(=O)N[C@@H](Cc2cn(CC(=O)O)c3ccccc23)C(=O)N1C [Compound 1004] ({CH2CO}-Y[NMeA]NP[Dap](X5)L[Hyp]W[Orn](X5)[Trp(1-CH2COOH)][NMeNle][NMeNle]LCG-NH2; thioether N-14),4.3 nM
6,CCCC[C@H]1C(=O)N(C)[C@@H](CCCC)C(=O)N[C@@H](CC(C)C)C(=O)N[C@H](C(=O)NCC(N)=O)CSCC(=O)N[C@@H](Cc2ccc(O)cc2)C(=O)N(C)[C@@H](C)C(=O)N[C@@H](CC(N)=O)C(=O)N2CCC[C@H]2C(=O)N[C@@H](CNc2c(Nc3ccc(C(=O)OCC)cc3)c(=O)c2=O)C(=O)N[C@@H](CC(C)C)C(=O)N2C[C@H](O)C[C@H]2C(=O)N[C@@H](Cc2c[nH]c3ccccc23)C(=O)N[C@@H](CCCNc2c(Nc3ccc(C(=O)OCC)cc3)c(=O)c2=O)C(=O)N[C@@H](Cc2cn(CC(=O)O)c3ccccc23)C(=O)N1C [Compound 1005] ({CH2CO}-Y[NMeA]NP[Dap](X3)L[Hyp]W[Orn](X3)[Trp(1-CH2COOH)][NMeNle][NMeNle]LCG-NH2; thioether N-14),1.4 nM
7,CCCC[C@H]1C(=O)N(C)[C@@H](CCCC)C(=O)N[C@@H](CC(C)C)C(=O)N[C@H](C(=O)NCC(N)=O)CSCC(=O)N[C@@H](Cc2ccc(O)cc2)C(=O)N(C)[C@@H](C)C(=O)N[C@@H](CC(N)=O)C(=O)N2CCC[C@H]2C(=O)N[C@@H](CNc2c(OC(C)C)c(=O)c2=O)C(=O)N[C@@H](CC(C)C)C(=O)N2C[C@H](O)C[C@H]2C(=O)N[C@@H](Cc2c[nH]c3ccccc23)C(=O)N[C@@H](CCCNc2c(OC(C)C)c(=O)c2=O)C(=O)N[C@@H](Cc2cn(CC(=O)O)c3ccccc23)C(=O)N1C [Compound 1007] ({CH2CO}-Y[NMeA]NP[Dap](X2)L[Hyp]W[Orn](X2)[Trp(1-CH2COOH)][NMeNle][NMeNle]LCG-NH2; thioether N-14),1.6 nM
8,CCCC[C@H]1C(=O)N(C)[C@@H](CCCC)C(=O)N[C@@H](CC(C)C)C(=O)N[C@H](C(=O)NCC(N)=O)CSCC(=O)N[C@@H](Cc2ccc(O)cc2)C(=O)N(C)[C@@H](C)C(=O)N[C@@H](CC(N)=O)C(=O)N2CCC[C@H]2C(=O)N[C@@H](CNc2c(OCC)c(=O)c2=O)C(=O)N[C@@H](CC(C)C)C(=O)N2C[C@H](O)C[C@H]2C(=O)N[C@@H](Cc2c[nH]c3ccccc23)C(=O)N[C@@H](CCCNc2c(OCC)c(=O)c2=O)C(=O)N[C@@H](Cc2cn(CC(=O)OCC)c3ccccc23)C(=O)N1C [Compound 1003] ({CH2CO}-Y[NMeA]NP[Dap](X7)L[Hyp]W[Orn](X7)[X6][NMeNle][NMeNle]LCG-NH2; thioether N-14),16 nM
